Counter-ions that a name gives are not always drawn.
SMILES | melting point
O=C1c2ccccc2CN1C1CCN(CC=C(c2ccccc2)c2ccccc2)CC1 (as salt: hydrochloride) [Example 11, 2-[1-(3,3-Diphenyl-2-propenyl)-4-piperidinyl]-2,3-dihydro-1H-isoindol-1-one, monohydrochloride] | 231 to 235 °C
O=C1c2ccccc2CN1C1CCN(Cc2ccccc2)CC1 (as salt: hydrochloride) [Example 13, 2,3-Dihydro-2-[1-(phenylmethyl)-4-piperidinyl]-1H-isoindol-1-one, monohydrochloride] | 271 to 274 °C
O=C1c2ccccc2CN1C1CCN(CCCc2ccccc2)CC1 (as salt: hydrochloride) [Example 14, 2,3-Dihydro-2-[1-(3-phenylpropyl)-4-piperidinyl]-1H-isoindol-1-one, monohydrochloride] | 229 to 231 °C
CCCCC(CCCC)CCN1CCC(N2Cc3ccccc3C2=O)CC1 (as salt: hydrochloride) [Example 17, 2-[1-(3-Butylheptyl)-4-piperidinyl]-2,3-dihydro-1H-isoindol-1-one, monohydrochloride] | 185 to 187 °C
O=C1c2ccccc2CN1C1CCN(C/C=C/c2ccccc2Oc2ccccc2)CC1 (as salt: hydrochloride) [Example 20, (E)-2,3-Dihydro-2-[1-[3-(2-phenoxyphenyl)-2-propenyl]-4-piperidinyl]-1H-isoindol-1-one, monohydrochloride] | 215 to 218 °C
COc1ccccc1CCCN1CCC(N2Cc3ccccc3C2=O)CC1 (as salt: hydrochloride) [Example 21, 2,3-Dihydro-2-[1-[3-(2-methoxyphenyl)propyl]-4-piperidinyl]-1H-isoindol-1-one, monohydrochloride] | 191 to 195 °C
O=C1CC(CN2CCN(c3ccccc3)CC2)Cc2ccccc21 (centres unmarked) (as salt: hydrochloride) [Example 23, 3,4-Dihydro-3-[(4-phenyl-1-piperazinyl)methyl]-1-(2H)-naphthalenone, monohydrochloride] | 243 to 246 °C
COc1ccccc1N1CCN(C(=O)C2CC(=O)c3ccccc3C2)CC1 (centres unmarked) (as salt: hydrochloride) [Example 25, 3,4-Dihydro-3-[[4-(2-methoxyphenyl)-1-piperazinyl]-carbonyl]-1(2H)-naphthalenone, monohydrochloride] | 197 to 199 °C
O=C1CC(CN2CCN(C(c3ccccc3)c3ccc(Cl)cc3)CC2)Cc2cc(F)ccc21 (centres unmarked) (as salt: hydrochloride) [Example 27, 3-[[4-[(4-Chlorophenyl)phenylmethyl]-1-piperazinyl]methyl]-6-fluoro-3,4-dihydro-1(2H)-naphthalenone, dihydrochloride] | 211 to 212 °C
COc1ccc(C(C(=O)NC2CCN(CCc3ccccc3)CC2)c2ccc(OC)cc2)cc1 (as salt: hydrochloride) [Example 29, 4-Methoxy-α-(4methoxyphenyl)-N-[1-(2-phenylethyl)-4-piperidinyl]benzeneacetamide, monohydrochloride] | 180 to 182 °C
O=C(NC1CCN(CCc2ccccc2)CC1)C(c1ccccc1)c1ccccc1 (as salt: hydrochloride) [Example 30, α-Phenyl-N-[1-(phenylethyl)-4-piperidinyl]-benzeneacetamide, monohydrochloride] | 263 to 264 °C
O=C1c2ccc(Cl)cc2CN1C1CCN(Cc2ccccc2)CC1 (as salt: hydrochloride) [Example 31, 5-Chloro-2,3-dihydro-2-[1-(phenylmethyl)-4-piperidinyl]-1H-isoindol-1-one, monohydrochloride] | 269 to 271 °C
CCCCC(=CCN1CCC(N2Cc3ccccc3C2=O)CC1)CCCC (as salt: hydrochloride) [Example 32, 2-[1-(3-Butyl-2-heptenyl)-4-piperidinyl]-2,3-dihydro-1H-isoindol-1-one, monohydrochloride] | 147 to 152 °C
O=C1c2ccccc2CN1C1CCN(C/C=C/CC(c2ccccc2)c2ccccc2)CC1 (as salt: hydrochloride) [Example 33, 2-[1-(5,5-Diphenyl-2-pentenyl)-4-piperidinyl]-2,3-dihydro-1H-isoindol-1-one, monohydrochloride] | 127 to 134 °C
O=C1c2ccccc2CN1C1CCN(CCCc2ccccc2Oc2ccccc2)CC1 (as salt: hydrochloride) [Example 34, 2,3-Dihydro-2-[1-[3-(2-phenoxyphenyl)propyl]-4-piperidinyl]-1H-isoindol-1-one, monohydrochloride] | 199 to 202 °C
O=C1c2ccccc2CN1C1CCN(C(c2ccccc2)c2ccccc2)CC1 (as salt: hydrochloride) [Example 35, 2,3-Dihydro-2-[1-(diphenylmethyl)-4-piperidinyl]-1H-isoindol-1-one, monohydrochloride] | 165 to 169 °C
O=C1c2ccccc2CN1C1CCN(C/C=C\CC(c2ccccc2)c2ccccc2)CC1 (as salt: hydrochloride) [Example 36, (Z)-2,3-Dihydro-2-[1-(5,5-diphenyl-2-pentenyl)-4-piperidinyl]-1H-isoindol-1-one, monohydrochloride] | 174 to 177 °C
COc1ccccc1C(=O)NC1CCN(CCC(c2ccccc2)c2ccccc2)CC1 (as salt: hydrochloride) [Example 38, N-[1-(3,3-Diphenylpropyl)-4-piperidinyl]-2-methoxybenzamide, monohydrochloride] | 170 to 172 °C
O=C(NC1CCN(CCC(c2ccccc2)c2ccccc2)CC1)c1ccccn1 (as salt: hydrochloride) [Example 40, N-[1-(3,3-Diphenylpropyl)-4-piperidinyl]-2-pyridineamide, monohydrochloride] | 109 to 116 °C
CC(=O)N(Cc1ccccc1)C1CCN(CCC(c2ccccc2)c2ccccc2)CC1 (as salt: hydrochloride) [Example 41, N-[1-(3,3-Diphenylpropyl)-4-piperidinyl]-N-(phenylmethyl)acetamide, monohydrochloride] | 102 to 105 °C
O=C(c1ccccc1)N(Cc1ccccc1)C1CCN(CCC(c2ccccc2)c2ccccc2)CC1 (as salt: hydrochloride) [Example 42, N-[1-(3,3-Diphenylpropyl)-4-piperidinyl]-N-(phenylmethyl)benzamide, monohydrochloride] | 115 to 120 °C
COc1ccccc1N1CCN(CC2CC(=O)c3ccc(F)cc3C2)CC1 (centres unmarked) [Example 22, 6-Fluoro-3,4-dihydro-3-[[4-(2-methoxyphenyl)-1-piperazinyl]-methyl]-1(2H)-naphthalenone] | 111 to 113 °C
O=C(Cc1c[nH]c2ccccc12)NC1CCN(Cc2ccccc2)CC1 [Example 28, N-[1-(Phenylmethyl)-4-piperidinyl]-1H-indole-3-acetamide] | 153 to 154 °C
